Measurements: patent US12171755B2, “PAPD5 inhibitors and methods of use thereof” (Children's Medical Center Corporation, priority 2017, dated 2024)

Target: T1, PAPD5 (Homo sapiens, UniProt Q8NDF8)
T1 construct: made in house
Test: High-throughput luminescence (KinaseGlo) RNA polyadenylation assay, ATP utilization by recombinant PAPD5
Format: biochemical
Details: Table 4 (entries of Table 5), ratio of luminescence with inhibitor to DMSO; for Fold-change determined at compound concentration 33 μM: 33 μM compound; for Fold-change determined at compound concentration 100 μM: 100 μM compound, higher = higher inhibition; for Fold-change determined at compound concentration 10 μM: 10 μM compound
Procedure, shortened: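 Recombinant PAPD5 polyadenylates an oligonucleotide substrate using ATP, and remaining ATP is read by KinaseGlo luciferase luminescence. Compound was incubated for 2 h at room temperature, then with luciferase for 10 min.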

T1 sequence (Q8NDF8 68-698 isoform Q8NDF8-5): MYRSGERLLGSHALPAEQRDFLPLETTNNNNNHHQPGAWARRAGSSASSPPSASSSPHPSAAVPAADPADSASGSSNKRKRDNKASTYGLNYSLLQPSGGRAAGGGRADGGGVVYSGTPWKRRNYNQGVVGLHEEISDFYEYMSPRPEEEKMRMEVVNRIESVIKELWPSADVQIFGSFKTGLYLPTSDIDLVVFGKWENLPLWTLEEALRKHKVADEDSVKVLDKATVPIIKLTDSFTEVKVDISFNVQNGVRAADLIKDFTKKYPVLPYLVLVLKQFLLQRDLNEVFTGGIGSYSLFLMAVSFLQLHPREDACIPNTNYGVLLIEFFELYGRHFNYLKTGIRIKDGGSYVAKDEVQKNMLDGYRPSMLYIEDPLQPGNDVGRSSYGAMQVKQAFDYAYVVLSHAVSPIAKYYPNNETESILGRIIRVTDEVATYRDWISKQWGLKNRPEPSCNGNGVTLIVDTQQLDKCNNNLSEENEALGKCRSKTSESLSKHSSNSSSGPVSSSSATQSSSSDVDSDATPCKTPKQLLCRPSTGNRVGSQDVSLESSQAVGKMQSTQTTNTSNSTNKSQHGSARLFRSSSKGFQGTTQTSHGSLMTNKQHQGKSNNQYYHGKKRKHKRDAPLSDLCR

Fold-change determined at compound concentration 33 μM	Fold-change determined at compound concentration 100 μM	Fold-change determined at compound concentration 10 μM	SMILES
1.177	1.444		Cc1cccc2c(=O)cc(C(=O)Nc3nnc(C(C)C)s3)oc12 [Entry 117, 8-methyl-4-oxo-N-(5-propan-2-yl-1,3,4-thiadiazol-2-yl)chromene-2-carboxamide]
1.195	1.615		O=c1oc2cc(O)c(O)cc2c2c1CCCC2 [Entry 118, 2,3-dihydroxy-7,8,9,10-tetrahydro-6H-benzo[c]-chromen-6-one]
1.319	1.366		CCn1cnc2c(=O)oc3ccc(S(=O)(=O)Nc4ccc(OC)cc4)cc3c21 [Entry 119, 1-ethyl-N-(4-methoxyphenyl)-4-oxochromeno[3,4-d]imidazole-8-sulfonamide]
1.1	1.381		Cc1nnc(NC(=O)c2cc(=O)c3cc(F)ccc3o2)s1 [Entry 120, 6-fluoro-N-(5-methyl-1,3,4-thiadiazol-2-yl)-4-oxo-4H-chromene-2-carboxamide]
1.118	1.26		CC(C)c1nnc(NC(=O)c2cc(=O)c3ccc(Br)cc3o2)s1 [Entry 121, 7-bromo-4-oxo-N-(5-propan-2-yl-1,3,4-thiadiazol-2-yl)chromene-2-carboxamide]
1.134	1.377		Cc1cc2oc(C(=O)Nc3nnc(C(C)C)s3)cc(=O)c2cc1C [Entry 122, 6,7-dimethyl-4-oxo-N-(5-propan-2-yl-1,3,4-thiadiazol-2-yl)chromene-2-carboxamide]
1.528	2.189	1.211	CCc1nnc(NC(=O)c2cc(=O)c3cc(C)c(C)cc3o2)s1 [Entry 123, N-(5-ethyl-1,3,4-thiadiazol-2-yl)-6,7-dimethyl-4-oxo-4H-chromene-2-carboxamide]
1.437	1.858	1.241	CCSc1nnc(NC(=O)c2cc(=O)c3cc(C)c(C)cc3o2)s1 [Entry 124, N-(5-ethylsulfanyl-1,3,4-thiadiazol-2-yl)-6,7-dimethyl-4-oxochromene-2-carboxamide]
1.147	1.444		CSc1nnc(NC(=O)c2cc(=O)c3cc(C)c(C)cc3o2)s1 [Entry 125, 6,7-dimethyl-N-[5-(methylsulfanyl)-1,3,4-thiadiazol-2-yl]-4-oxo-4H-chromene-2-carboxamide]
1.15	1.302		Cc1ccc2c(=O)cc(C(=O)Nc3nnc(CC(C)C)s3)oc2c1C [Entry 126, 7,8-dimethyl-N-[5-(2-methylpropyl)-1,3,4-thiadiazol-2-yl]-4-oxochromene-2-carboxamide]
1.397	1.984		CCCc1nnc(NC(=O)c2cc(=O)c3cc(C)c(C)cc3o2)s1 [Entry 127, 6,7-dimethyl-4-oxo-N-(5-propyl-1,3,4-thiadiazol-2-yl)-4H-chromene-2-carboxamide]
1.314	1.957		CCOC(=O)Cc1cc(=O)oc2cc(O)cc(O)c12 [Entry 128, Ethyl (5,7-dihydroxy-2-oxo-2H-chromen-4-yl)acetate]
1.153	1.395		CCOc1ccc2oc(=O)cc(CN3CCN(C(=O)c4ccc(OC)c(OC)c4)CC3)c2c1 [Entry 129, 4-[[4-(3,4-dimethoxybenzoyl)piperazin-1-yl]methyl]-6-ethoxychromen-2-one]
1.086	1.212		Cc1cc(=O)oc2cc(OCC(=O)Nc3ccc(O)c(C(=O)O)c3)ccc12 [Entry 130, 2-hydroxy-5-[[2-(4-methyl-2-oxochromen-7-yl)oxyacetyl]amino]benzoic acid]
1.195	1.653		CC(Oc1ccc2c3c(c(=O)oc2c1)CCC3)C(=O)O (stereo not shown) [Entry 131, 2-[(4-Oxo-1,2,3,4-tetrahydrocyclopenta[c]chromen-7-yl)oxy]propanoic acid]
1.303	1.774		COc1ccc(-c2coc3c2c(C)cc2oc(=O)c(CC(=O)O)c(C)c23)cc1 [Entry 132, [3-(4-methoxyphenyl)-4,9-dimethyl-7-oxo-7H-furo[2,3-f]chromen-8-yl]acetic acid]

Fold-change determined at compound concentration 33 μM	Fold-change determined at compound concentration 100 μM	Fold-change determined at compound concentration 10 μM	SMILES
1.186	1.508		O=c1oc2cc(OCc3nnn[nH]3)c(Cl)cc2c2c1CCC2 [Entry 133, 8-chloro-7-(1H-tetrazol-5-ylmethoxy)-2,3-dihydrocyclopenta[c]chromen-4(1H)-one]
1.124	1.298		Cc1cc(Cl)ccc1NS(=O)(=O)c1cc2[nH]c(=O)c(=O)[nH]c2cc1C [Entry 134, N-(4-chloro-2-methylphenyl)-7-methyl-2,3-dioxo-1,4-dihydroquinoxaline-6-sulfonamide]
1.191	1.347		COc1ccc(NS(=O)(=O)c2cc3[nH]c(=O)c(=O)[nH]c3cc2C)cc1Cl [Entry 135, N-(3-chloro-4-methoxyphenyl)-7-methyl-2,3-dioxo-1,4-dihydroquinoxaline-6-sulfonamide]
1.082	1.303		COc1ccc(S(=O)(=O)Nc2cc3c(cc2Oc2ccccc2)n(C)c(=O)c(=O)n3C)cc1 [Entry 136, N-(1,4-dimethyl-2,3-dioxo-7-phenoxy-1,2,3,4-tetrahydroquinoxalin-6-yl)-4-methoxybenzenesulfonamide]
1.12	1.301		Cc1cc2[nH]c(=O)c(=O)[nH]c2cc1S(=O)(=O)Nc1ccc(OC(F)(F)F)cc1 [Entry 137, 7-methyl-2,3-dioxo-N-[4-(trifluoromethoxy)phenyl]-1,4-dihydroquinoxaline-6-sulfonamide]
1.161	1.317		COc1cc(Cl)c(NS(=O)(=O)c2cc3[nH]c(=O)c(=O)[nH]c3cc2C)c(OC)c1 [Entry 138, N-(2-chloro-4,6-dimethoxyphenyl)-7-methyl-2,3-dioxo-1,4-dihydroquinoxaline-6-sulfonamide]
1.272	1.549		CCOC(=O)c1cccc(NS(=O)(=O)c2cc3[nH]c(=O)c(=O)[nH]c3cc2C)c1 [Entry 139, ethyl 3-[(7-methyl-2,3-dioxo-1,4-dihydroquinoxalin-6-yl)sulfonylamino]benzoate]
1.329	1.91		COc1cccc(C(=O)Nc2nc3nc(-c4ccccc4)cc(=O)n3[nH]2)c1 [Entry 140, 3-methoxy-N-(7-oxo-5-phenyl-1H-[1,2,4]triazolo[1,5-a]pyrimidin-2-yl)benzamide]
1.308	1.882		COc1ccc(-c2[nH]nc3nc(-c4cc(OC)c(OC)c(OC)c4)cc(C(=O)O)c23)cc1 [Entry 141, 3-(4-methoxyphenyl)-6-(3,4,5-trimethoxyphenyl)-2H-pyrazolo[3,4-b]pyridine-4-carboxylic acid]
1.116	1.255		CCc1cc(=O)n2nc(NCc3ccccc3C)nc2[nH]1 [Entry 143, 5-ethyl-2-[(2-methylbenzyl)amino][1,2,4]triazolo[1,5-a]pyrimidin-7(4H)-one]
1.07	1.217		Cc1ccc(-c2ccc3nnc(C)n3n2)cc1S(=O)(=O)N1CCCC1 [Entry 146, 3-methyl-6-(4-methyl-3-pyrrolidin-1-ylsulfonylphenyl)-[1,2,4]triazolo[4,3-b]pyridazine]
1.118	1.243		CC1=C2C(=NC(=O)CC2c2ccc(O)cc2)N(c2ccc3nncn3n2)N1 (stereo not shown) [Entry 147, 4-(4-hydroxyphenyl)-3-methyl-1-([1,2,4]triazolo[4,3-b]pyridazin-6-yl)-4,5-dihydro-2H-pyrazolo[3,4-b]pyridin-6-one]
1.05	1.215		Cc1nnc2ccc(-n3ncc4c3NC(=O)CC4c3ccc(O)cc3)nn12 (stereo not shown) [Entry 148, 4-(4-hydroxyphenyl)-1-(3-methyl[1,2,4]triazolo[4,3-b]pyridazin-6-yl)-1,4,5,7-tetrahydro-6H-pyrazolo[3,4-b]pyridin-6-one]
1.183	1.309		CCOC(=O)c1ccc(NC(=O)CCc2c(C)nc3nc[nH]n3c2=O)cc1 [Entry 149, ethyl 4-[3-(5-methyl-7-oxo-1H-[1,2,4]triazolo[1,5-a]pyrimidin-6-yl)propanoylamino]benzoate]
1.19	1.577		Cc1ccccc1C(=O)Nc1nc2nc(-c3ccccc3)cc(=O)n2[nH]1 [Entry 150, 2-methyl-N-(7-oxo-5-phenyl-1H-[1,2,4]triazolo[1,5-a]pyrimidin-2-yl)benzamide]
